Reference: patent publication US12673945B2, “3-((8-((1H-pyrazol-4-yl)amino)imidazo[1,2-a]pyridin-3-yl)ethinyl)-n-phenylbenzamide derivative, method for preparing same, and pharmaceutical composition containing same as active ingredient for prevention or treatment of cancer” (DAEGU-GYEONGBUK MEDICAL INNOVATION FOUNDATION, priority 2020, dated 2026)

Experiments:
Assay type in all cases: cell-based
T315I-TCCS cells = experiment: human CML cell proliferation inhibition; details: 72 hours, Cell Counting Kit-8
Method in brief: (§1)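 Seed 1×10^4 cells/well; add compound, 9 concentrations by 5-fold dilution, final 0–10 μM, or DMSO; incubate 72 h, 37 °C, CO2; add CCK-8 for 2 h; read A450; normalise to vehicle; fit GI50.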

T315I-KOPM28 cells = experiment: human CML cell proliferation inhibition; details: 72 hours, Cell Counting Kit-8
Method in brief: as §1

TCCS cells = experiment: human CML cell proliferation inhibition; details: 72 hours, Cell Counting Kit-8
Method in brief: as §1

KOPM28 cells = experiment: human CML cell proliferation inhibition; details: 72 hours, Cell Counting Kit-8
Method in brief: as §1

Parental (Ba/F3) = experiment: Ba/F3 cell proliferation inhibition; details: BaF3; 72 hours, Cell Counting Kit-8
Method in brief: (§2)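 GI50 derived from CCK-8 absorbance at 450 nm (2 h development), expressed relative to DMSO vehicle. Cells (parental or T315I-Bcr-Abl Ba/F3, 1×10^4/well) received nine threefold-diluted concentrations, final 0 to 10 μM, for 72 h at 37 °C.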

T315I-Bcr-Abl (Ba/F3) = experiment: Ba/F3 cell proliferation inhibition; details: BaF3; 72 hours, Cell Counting Kit-8
Method in brief: as §2

Cc1cc(F)c(C(=O)Nc2ccc(CN3CCN(S(C)(=O)=O)CC3)c(C(C)(C)C#N)c2)cc1C#Cc1cnc2c(Nc3cnn(C)c3)cccn12 [Example 45, N-(3-(2-cyanopropan-2-yl)-4-((4-(methylsulfonyl)piperazin-1-yl)methyl)phenyl)-2-fluoro-4-methyl-5-((8-((1-methyl-1H-pyrazol-4-yl)amino)imidazo[1,2-a]pyridin-3-yl)ethynyl)benzamide]
GI50 (T315I-TCCS cells): > 100 nM
GI50 (T315I-KOPM28 cells): > 100 nM
GI50 (TCCS cells): < 10 nM
GI50 (KOPM28 cells): < 10 nM
GI50 (Parental (Ba/F3)): > 5000 nM
GI50 (T315I-Bcr-Abl (Ba/F3)): 500 to 5000 nM

Cc1cc(F)c(C(=O)Nc2ccc(Cn3ccnc3)c(C(C)(C)C#N)c2)cc1C#Cc1cnc2c(Nc3cnn(C)c3)cccn12 [Example 46, N-(4-((1H-imidazol-1-yl)methyl)-3-(2-cyanopropan-2-yl)phenyl)-2-fluoro-4-methyl-5-((8-((1-methyl-1H-pyrazol-4-yl)amino)imidazo[1,2-a]pyridin-3-yl)ethynyl)benzamide]
GI50 (T315I-TCCS cells): > 100 nM
GI50 (T315I-KOPM28 cells): > 100 nM
GI50 (TCCS cells): < 10 nM
GI50 (KOPM28 cells): < 10 nM
GI50 (Parental (Ba/F3)): > 5000 nM
GI50 (T315I-Bcr-Abl (Ba/F3)): 50 to 500 nM

Cc1cc(F)c(C(=O)Nc2cc(N3CCN(C)CC3)cc(C(F)(F)F)c2)cc1C#Cc1cnc2c(Nc3cnn(C)c3)cccn12 [Example 47, 2-fluoro-4-methyl-5-((8-((1-methyl-1H-pyrazol-4-yl)amino)imidazo[1,2-a]pyridin-3-yl)ethynyl)-N-(3-(4-methylpiperazin-1-yl)-5-(trifluoromethyl)phenyl)benzamide]
GI50 (T315I-TCCS cells): 100 nM
GI50 (T315I-KOPM28 cells): 100 nM
GI50 (TCCS cells): < 10 nM
GI50 (KOPM28 cells): < 10 nM
GI50 (Parental (Ba/F3)): 500 to 5000 nM
GI50 (T315I-Bcr-Abl (Ba/F3)): 50 to 500 nM

Cc1cc(F)c(C(=O)Nc2cc(N(C)CCN(C)C)cc(C(F)(F)F)c2)cc1C#Cc1cnc2c(Nc3cnn(C)c3)cccn12 [Example 48, N-(3-((2-(dimethylamino)ethyl)(methyl)amino)-5-(trifluoromethyl)phenyl)-2-fluoro-4-methyl-5-((8-((1-methyl-1H-pyrazol-4-yl)amino)imidazo[1,2-a]pyridin-3-yl)ethynyl)benzamide]
GI50 (T315I-TCCS cells): 100 nM
GI50 (T315I-KOPM28 cells): > 100 nM
GI50 (TCCS cells): < 10 nM
GI50 (KOPM28 cells): < 10 nM
GI50 (Parental (Ba/F3)): > 5000 nM
GI50 (T315I-Bcr-Abl (Ba/F3)): 50 to 500 nM

Cc1cc(F)c(C(=O)Nc2cc(N3CCN(C)C(=O)C3)cc(C(F)(F)F)c2)cc1C#Cc1cnc2c(Nc3cnn(C)c3)cccn12 [Example 49, 2-fluoro-4-methyl-5-((8-((1-methyl-1H-pyrazol-4-yl)amino)imidazo[1,2-a]pyridin-3-yl)ethynyl)-N-(3-(4-methyl-3-oxopiperazin-1-yl)-5-(trifluoromethyl)phenyl)benzamide]
GI50 (T315I-TCCS cells): < 10 nM
GI50 (T315I-KOPM28 cells): 100 nM
GI50 (TCCS cells): < 10 nM
GI50 (KOPM28 cells): < 10 nM
GI50 (Parental (Ba/F3)): 500 to 5000 nM
GI50 (T315I-Bcr-Abl (Ba/F3)): 50 to 500 nM

Cc1cc(F)c(C(=O)Nc2cc(OCCN(C)C)cc(C(F)(F)F)c2)cc1C#Cc1cnc2c(Nc3cnn(C)c3)cccn12 [Example 50, N-(3-(2-(dimethylamino)ethoxy)-5-(trifluoromethyl)phenyl)-2-fluoro-4-methyl-5-((8-((1-methyl-1H-pyrazol-4-yl)amino)imidazo[1,2-a]pyridin-3-yl)ethynyl)benzamide]
GI50 (T315I-TCCS cells): 100 nM
GI50 (T315I-KOPM28 cells): > 100 nM
GI50 (TCCS cells): < 10 nM
GI50 (KOPM28 cells): < 10 nM
GI50 (Parental (Ba/F3)): > 5000 nM
GI50 (T315I-Bcr-Abl (Ba/F3)): 50 to 500 nM

Cc1cc(F)c(C(=O)Nc2cc(OCCCN(C)C)cc(C(F)(F)F)c2)cc1C#Cc1cnc2c(Nc3cnn(C)c3)cccn12 [Example 51, N-(3-(3-(dimethylamino)propoxy)-5-(trifluoromethyl)phenyl)-2-fluoro-4-methyl-5-((8-((1-methyl-1H-pyrazol-4-yl)amino)imidazo[1,2-a]pyridin-3-yl)ethynyl)benzamide]
GI50 (T315I-TCCS cells): 100 nM
GI50 (T315I-KOPM28 cells): 100 nM
GI50 (TCCS cells): 100 nM
GI50 (KOPM28 cells): < 10 nM
GI50 (Parental (Ba/F3)): > 5000 nM
GI50 (T315I-Bcr-Abl (Ba/F3)): 50 to 500 nM

Cc1cc(F)c(C(=O)Nc2cc(-c3ccncc3)cc(C(F)(F)F)c2)cc1C#Cc1cnc2c(Nc3cnn(C)c3)cccn12 [Example 52, 2-fluoro-4-methyl-5-((8-((1-methyl-1H-pyrazol-4-yl)amino)imidazo[1,2-a]pyridin-3-yl)ethynyl)-N-(3-(pyridin-4-yl)-5-(trifluoromethyl)phenyl)benzamide]
GI50 (T315I-TCCS cells): 100 nM
GI50 (T315I-KOPM28 cells): 100 nM
GI50 (TCCS cells): < 10 nM
GI50 (KOPM28 cells): < 10 nM
GI50 (Parental (Ba/F3)): > 5000 nM
GI50 (T315I-Bcr-Abl (Ba/F3)): 50 to 500 nM

Cc1cc(F)c(C(=O)Nc2cc(-c3cccnc3)cc(C(F)(F)F)c2)cc1C#Cc1cnc2c(Nc3cnn(C)c3)cccn12 [Example 53, 2-fluoro-4-methyl-5-((8-((1-methyl-1H-pyrazol-4-yl)amino)imidazo[1,2-a]pyridin-3-yl)ethynyl)-N-(3-(pyridin-3-yl)-5-(trifluoromethyl)phenyl)benzamide]
GI50 (T315I-TCCS cells): 100 nM
GI50 (T315I-KOPM28 cells): > 100 nM
GI50 (TCCS cells): < 10 nM
GI50 (KOPM28 cells): < 10 nM
GI50 (Parental (Ba/F3)): > 5000 nM
GI50 (T315I-Bcr-Abl (Ba/F3)): 50 to 500 nM

Cc1cc(F)c(C(=O)Nc2cc(-c3cnn(C)c3)cc(C(F)(F)F)c2)cc1C#Cc1cnc2c(Nc3cnn(C)c3)cccn12 [Example 54, 2-fluoro-4-methyl-N-(3-(1-methyl-1H-pyrazol-4-yl)-5-(trifluoromethyl)phenyl)-5-((8-((1-methyl-1H-pyrazol-4-yl)amino)imidazo[1,2-a]pyridin-3-yl)ethynyl)benzamide]
GI50 (T315I-TCCS cells): 100 nM
GI50 (T315I-KOPM28 cells): > 100 nM
GI50 (TCCS cells): < 10 nM
GI50 (KOPM28 cells): 100 nM
GI50 (Parental (Ba/F3)): > 5000 nM
GI50 (T315I-Bcr-Abl (Ba/F3)): 50 to 500 nM

Cc1cc(F)c(C(=O)Nc2ccc(CN3CCN(C)CC3)c(C(F)(F)F)c2)cc1C#Cc1cnc2c(Nc3cnn(C)c3)cccn12 [Example 55, 2-fluoro-4-methyl-5-((8-((1-methyl-1H-pyrazol-4-yl)amino)imidazo[1,2-a]pyridin-3-yl)ethynyl)-N-(4-((4-methylpiperazin-1-yl)methyl)-3-(trifluoromethyl)phenyl)benzamide]
GI50 (T315I-TCCS cells): < 10 nM
GI50 (T315I-KOPM28 cells): < 10 nM
GI50 (TCCS cells): < 10 nM
GI50 (KOPM28 cells): < 10 nM
GI50 (Parental (Ba/F3)): 500 to 5000 nM
GI50 (T315I-Bcr-Abl (Ba/F3)): < 50 nM

Cc1cc(F)c(C(=O)Nc2ccc(CN3CCN(CCO)CC3)c(C(F)(F)F)c2)cc1C#Cc1cnc2c(Nc3cnn(C)c3)cccn12 [Example 56, 2-fluoro-N-(4-((4-(2-hydroxyethyl)piperazin-1-yl)methyl)-3-(trifluoromethyl)phenyl)-4-methyl-5-((8-((1-methyl-1H-pyrazol-4-yl)amino)imidazo[1,2-a]pyridin-3-yl)ethynyl)benzamide]
GI50 (T315I-TCCS cells): < 10 nM
GI50 (T315I-KOPM28 cells): < 10 nM
GI50 (TCCS cells): < 10 nM
GI50 (KOPM28 cells): < 10 nM
GI50 (Parental (Ba/F3)): 500 to 5000 nM
GI50 (T315I-Bcr-Abl (Ba/F3)): < 50 nM

Cc1cc(F)c(C(=O)Nc2ccc(CN3CCOCC3)c(C(F)(F)F)c2)cc1C#Cc1cnc2c(Nc3cnn(C)c3)cccn12 [Example 57, 2-fluoro-4-methyl-5-((8-((1-methyl-1H-pyrazol-4-yl)amino)imidazo[1,2-a]pyridin-3-yl)ethynyl)-N-(4-(morpholinomethyl)-3-(trifluoromethyl)phenyl)benzamide]
GI50 (T315I-TCCS cells): 100 nM
GI50 (T315I-KOPM28 cells): > 100 nM
GI50 (TCCS cells): 100 nM
GI50 (KOPM28 cells): < 10 nM
GI50 (Parental (Ba/F3)): > 5000 nM
GI50 (T315I-Bcr-Abl (Ba/F3)): 50 to 500 nM

Cc1cc(F)c(C(=O)Nc2ccc(CN3CCN(C)C(=O)C3)c(C(F)(F)F)c2)cc1C#Cc1cnc2c(Nc3cnn(C)c3)cccn12 [Example 58, 2-fluoro-4-methyl-5-((8-((1-methyl-1H-pyrazol-4-yl)amino)imidazo[1,2-a]pyridin-3-yl)ethynyl)-N-(4-((4-methyl-3-oxopiperazin-1-yl)methyl)-3-(trifluoromethyl)phenyl)benzamide]
GI50 (T315I-TCCS cells): 100 nM
GI50 (T315I-KOPM28 cells): 100 nM
GI50 (TCCS cells): < 10 nM
GI50 (KOPM28 cells): < 10 nM
GI50 (Parental (Ba/F3)): > 5000 nM
GI50 (T315I-Bcr-Abl (Ba/F3)): < 50 nM

Cc1cc(F)c(C(=O)Nc2ccc(CN3CCC(N(C)C)C3)c(C(F)(F)F)c2)cc1C#Cc1cnc2c(Nc3cnn(C)c3)cccn12 (stereo not drawn) [Example 59, N-(4-((3-(dimethylamino)pyrrolidine-1-yl)methyl)-3-(trifluoromethyl)phenyl)-2-fluoro-4-methyl-5-((8-((1-methyl-1H-pyrazol-4-yl)amino)imidazo[1,2-a]pyridin-3-yl)ethynyl)benzamide]
GI50 (T315I-TCCS cells): 100 nM
GI50 (T315I-KOPM28 cells): > 100 nM
GI50 (TCCS cells): < 10 nM
GI50 (KOPM28 cells): < 10 nM
GI50 (Parental (Ba/F3)): > 5000 nM
GI50 (T315I-Bcr-Abl (Ba/F3)): 50 to 500 nM

Cc1cc(F)c(C(=O)Nc2ccc(CN3CCN(S(C)(=O)=O)CC3)c(C(F)(F)F)c2)cc1C#Cc1cnc2c(Nc3cnn(C)c3)cccn12 [Example 60, 2-fluoro-4-methyl-5-((8-((1-methyl-1H-pyrazol-4-yl)amino)imidazo[1,2-a]pyridin-3-yl)ethynyl)-N-(4-((4-(methylsulfonyl)piperazin-1-yl)methyl)-3-(trifluoromethyl)phenyl)benzamide]
GI50 (T315I-TCCS cells): 100 nM
GI50 (T315I-KOPM28 cells): > 100 nM
GI50 (TCCS cells): < 10 nM
GI50 (KOPM28 cells): 100 nM
GI50 (Parental (Ba/F3)): 500 to 5000 nM
GI50 (T315I-Bcr-Abl (Ba/F3)): < 50 nM

Cc1cc(F)c(C(=O)Nc2ccc(CN3CCCN(C)CC3)c(C(F)(F)F)c2)cc1C#Cc1cnc2c(Nc3cnn(C)c3)cccn12 [Example 61, 2-fluoro-4-methyl-N-(4-((4-methyl-1,4-diazepan-1-yl)methyl)-3-(trifluoromethyl)phenyl)-5-((8-((1-methyl-1H-pyrazol-4-yl)amino)imidazo[1,2-a]pyridin-3-yl)ethynyl)benzamide]
GI50 (T315I-TCCS cells): 100 nM
GI50 (T315I-KOPM28 cells): < 10 nM
GI50 (TCCS cells): < 10 nM
GI50 (KOPM28 cells): < 10 nM
GI50 (Parental (Ba/F3)): 500 to 5000 nM
GI50 (T315I-Bcr-Abl (Ba/F3)): < 50 nM
